Source: PubChem BioAssay (NCI)
Several values for one entry are separate records, joined by “and”; a condition that tells them apart may be missing. Equal values may be shown once.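 Exposure lasted 48 hours, with cells grown in 96-well plates and compounds tested at five concentrations. GI50 is the concentration that inhibits growth by half. At the TGI there is no net growth.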

Key:
Experiment in all cases: NCI anticancer screen, dose series, 48 h
[1] = tested on: CAKI-1 renal
[2] = tested on: DU-145 prostate
[3] = tested on: EKVX NSCLC
[4] = tested on: IGROV1 ovarian
[5] = tested on: OVCAR-3 ovarian
[6] = tested on: PC-3 prostate
[7] = tested on: RXF 393 renal
[8] = tested on: SK-MEL-2 melanoma
[9] = tested on: SN12C renal
[10] = tested on: SNB-19 CNS

Structure (SMILES) | GI50 [1] [µM] | TGI [1] [µM] | GI50 [2] [µM] | TGI [2] [µM] | GI50 [3] [µM] | TGI [3] [µM] | GI50 [4] | TGI [4] [µM] | GI50 [5] [µM] | TGI [5] [µM] | GI50 [6] [µM] | TGI [6] [µM] | GI50 [7] [µM] | TGI [7] [µM] | GI50 [8] [µM] | TGI [8] [µM] | GI50 [9] [µM] | TGI [9] [µM] | GI50 [10] [µM] | TGI [10] [µM]
Cn1cc(-c2ccc3c(Nc4cccc(NC(=O)Nc5cccc(F)c5)c4)ncnc3c2)cn1 | 0.559 | 14.9 | 1.86 | 6.6 | 6.22 | 24.3 | 1.3 µM | 11.2 | 1.51 | 3.27 | 2.78 | 15.5 | 1.2 | 3.83 | 4.43 | 17.8 | 1.6 | 4.29 | 3.16 | 13.5
COc1cc(C2c3[nH]c4ccccc4c3C[C@H]3COC(=O)N23)cc(OC)c1OC (stereo not given in full) | < 0.01 | > 100 |  | 6.25 |  | > 100 | 0.0655 µM and < 0.01 µM | > 100 | < 0.01 |  | < 0.01 |  |  |  | < 0.01 | > 100 | 0.0471 | > 100 |  | 3.16
COc1cc2c(cc1O)CC[C@@H]1[C@@H]2CC[C@]2(C)[C@@H](NCCN(C)C)CC[C@@H]12 | 0.464 | 0.945 | 0.119 | 0.423 | 0.341 | 0.804 | 0.407 µM | 0.954 | 0.123 | 0.475 | 0.188 | 0.599 | 0.118 | 0.48 | 0.127 | 0.517 | 0.38 | 1.48 | 0.4 | 0.966
Cc1c(N2CCCC2)cc2c(c1NC(=O)c1ccccc1Cl)C(C)(C)CC2(C)C |  | 26.1 |  | 29.3 |  | 29.9 |  | 28 |  | 21.3 |  | 29.9 |  | 27.5 |  | 30 |  | 33.2 |  | 29.5
CC[C@]1(O)CC(OC2CC(N(C)C)C(O)C(C)O2)c2c(cc3c(c2O)C(=O)c2c(O)cccc2C3=O)[C@@H]1C(=O)OC (stereo not given in full) |  | 0.377 |  | 12.9 |  | 3.86 |  | 3.21 |  | 5.67 |  | 1.8 |  | 1.76 |  | 1.82 |  | 6.85 |  | 7.03
CCCCCCCCCCCCNC(C)=O |  | 39.3 |  | > 100 |  | 25.6 |  |  |  | 40.1 |  | 28.4 |  | 43.4 |  | 28.1 |  | 37 |  | 31.2
O=C(Nc1ccc(Cl)c(Cl)c1)c1cccc(NC2=C(Cl)C(=O)N(Cc3ccccc3)C2=O)c1 | 53.9 | > 100 | 20.6 | > 100 | 20.2 | 64.5 | 21.1 µM | 91.1 | 24.6 | > 100 | 27.2 | > 100 | 25.1 | 65.6 | 23.5 | 56.5 | 52.9 | > 100 | > 100 | > 100
CN(Cc1cnc2nc(N)nc(N)c2n1)c1ccc(C(=O)NC(CCC(=O)O)C(=O)O)cc1C(F)(F)F (stereo not given) |  | > 100 |  | > 100 |  | > 100 |  | > 100 |  | > 100 |  | > 100 |  | > 100 |  | > 100 |  |  |  | > 100
C/C(=N\NC(=O)c1sc(=S)n(C)c1N)c1cc2ccccc2o1 | 37.6 | > 100 | 11.4 | 27.6 | 11.9 | 29.3 | 21.4 µM | > 100 | 15.5 | 29.9 | 9.73 | 32.7 | 13.2 | 27.8 | 14 | 37 | 17.6 | 55.6 | 17.1 | 45.6
CCOC(=O)c1c2c(c(O)c3ccccc3c(O)n(Cc3ccc(OC)cc3)c1C)C(=O)C=CC2=O | > 100 | > 100 | > 100 | > 100 | > 100 | > 100 | > 100 µM | > 100 | 68.9 | > 100 | > 100 | > 100 | > 100 | > 100 | > 100 | > 100 | > 100 | > 100 | > 100 | > 100
COC(=O)CCC(=O)C(=O)OC |  |  | 31700 |  | 20600 |  | 19000 µM | 76800 | 28600 |  | 27800 | 84500 | 30300 | 95100 | 19700 | 41400 | 21500 | 62100 | 34200 | 
CCN(CC)CCOCC[C@H]1CC[C@H]2[C@@H]3[C@H](C)Cc4cc(OS(N)(=O)=O)ccc4[C@H]3CC[C@]12C | 1.36 | 2.97 | 1.48 | 2.94 | 0.765 | 3.65 | 2.41 µM | 8 | 1.21 | 2.46 | 1.57 | 4.48 | 1.67 | 4.12 | 2.32 | 4.45 | 1.19 | 2.86 | 1.71 | 3.17
CCCCON(OC(=O)c1ccccc1)C(=O)c1ccccc1 | > 100 | > 100 | > 100 | > 100 | > 100 | > 100 | > 100 µM | > 100 | > 100 | > 100 | > 100 | > 100 | > 100 | > 100 | > 100 | > 100 | > 100 | > 100 | > 100 | > 100
O=C[C@@H](CO)O[C@H](C=O)c1c[nH]c(=O)[nH]c1=O |  | 250 |  | 437 |  | 329 |  | 343 |  | 309 |  | 790 |  | 163 |  | 3680 |  | 551 |  | 813
CCc1nc(N)nc(N)c1-c1ccc(NCCN)c([N+](=O)[O-])c1 |  | > 100 |  | > 100 |  | > 100 |  | > 100 |  | > 100 |  | > 100 |  | > 100 |  | > 100 |  | > 100 |  | > 100
